According to ChEMBL document CHEMBL5518174 (Eur J Med Chem, 2024):

How the values were obtained:
[1] = Downregulation of HDAC8 protein expression in human NCI-H1975 cells assessed as fold change at 0.05 uM incubated for 24 hrs by immunoblotting analysis (reference value: 1); type: functional
[2] = Upregulation of acetylated H4 protein expression in human NCI-H1975 cells assessed as fold change at 0.05 uM incubated for 24 hrs by immunoblotting analysis (reference value: 1); type: functional
[3] = Toxicity in athymic nude BALB/c mouse xenografted with human NCI-H1975 cells assessed as effect on ALT level at 6 mg/kg, ip administered 5 times a week for 3 weeks and measured on day 22; type: organism-based; conditions: in vivo, 528 h, time 22 day
[4] = Downregulation of HDAC3 protein expression in human NCI-H1975 cells assessed as fold change at 0.05 uM incubated for 24 hrs by immunoblotting analysis (reference value: 1); type: functional
[5] = Toxicity in athymic nude BALB/c mouse xenografted with human MDA-MB-231 cells assessed as effect on BUN level in serum at 3 mg/kg, ip administered 5 times a week for 7 weeks; type: organism-based; conditions: in vivo, 1176 h
[6] = Downregulation of HDAC1 protein expression in human MDA-MB-231 cells assessed as fold change at 0.05 uM incubated for 24 hrs by immunoblotting analysis (reference value: 1); type: functional
[7] = Effect on HDAC2 protein expression in human MDA-MB-231 cells assessed as fold change at 0.1 uM incubated for 24 hrs by immunoblotting analysis (reference value: 1); type: functional
Histone deacetylase 11 = biological target: T1, Histone deacetylase 11 (Homo sapiens, UniProt Q96DB2); assay: Inhibition of recombinant human HDAC11 using acetylated luminogenic substrate incubated for 10 mins by ultra-glo recombinant firefly luciferase based luminescence assay
T1 sequence (Q96DB2 whole entry): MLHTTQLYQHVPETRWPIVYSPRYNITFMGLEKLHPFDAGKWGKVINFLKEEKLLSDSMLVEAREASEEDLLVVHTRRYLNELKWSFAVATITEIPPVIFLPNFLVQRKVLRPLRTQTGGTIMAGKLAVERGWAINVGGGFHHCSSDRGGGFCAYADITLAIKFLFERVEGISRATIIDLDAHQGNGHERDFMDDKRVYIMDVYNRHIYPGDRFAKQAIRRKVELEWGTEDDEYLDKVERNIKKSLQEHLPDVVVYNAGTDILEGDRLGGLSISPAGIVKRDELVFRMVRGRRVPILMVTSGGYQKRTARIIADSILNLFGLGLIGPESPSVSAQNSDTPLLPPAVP

[8] = Effect on HDAC11 protein expression in human NCI-H1975 cells assessed as fold change at 0.1 uM incubated for 24 hrs by immunoblotting analysis (reference value: 1); type: functional
[9] = Effect on HDAC6 protein expression in human MDA-MB-231 cells assessed as fold change at 0.1 uM incubated for 24 hrs by immunoblotting analysis (reference value: 1); type: functional
[10] = Effect on HDAC8 protein expression in human MDA-MB-231 cells assessed as fold change at 0.1 uM incubated for 24 hrs by immunoblotting analysis (reference value: 1); type: functional
[11] = Effect on HDAC9 protein expression in human MDA-MB-231 cells assessed as fold change at 0.05 uM incubated for 24 hrs by immunoblotting analysis (reference value: 1); type: functional
[12] = Toxicity in athymic nude BALB/c mouse xenografted with human NCI-H1975 cells assessed as effect on BUN level at 6 mg/kg, ip administered 5 times a week for 3 weeks and measured on day 22; type: organism-based; conditions: in vivo, 528 h, time 22 day
[13] = Effect on HDAC4 protein expression in human NCI-H1975 cells assessed as fold change at 0.05 uM incubated for 24 hrs by immunoblotting analysis (reference value: 1); type: functional
[14] = Downregulation of HDAC2 protein expression in human NCI-H1975 cells assessed as fold change at 0.1 uM incubated for 24 hrs by immunoblotting analysis (reference value: 1); type: functional
Histone deacetylase 5 = Histone deacetylase 5 (Homo sapiens, UniProt Q9UQL6); assay: Inhibition of recombinant human HDAC5 using acetylated luminogenic substrate incubated for 10 mins by ultra-glo recombinant firefly luciferase based luminescence assay
[15] = Toxicity in athymic nude BALB/c mouse xenografted with human NCI-H1975 cells assessed as effect on creatinine level at 6 mg/kg, ip administered 5 times a week for 3 weeks and measured on day 22; type: organism-based; conditions: in vivo, 528 h, time 22 day
[16] = Downregulation of HDAC7 protein expression in human MDA-MB-231 cells assessed as fold change at 0.05 uM incubated for 24 hrs by immunoblotting analysis (reference value: 1); type: functional
[17] = Downregulation of HDAC11 protein expression in human MDA-MB-231 cells assessed as fold change at 0.1 uM incubated for 24 hrs by immunoblotting analysis (reference value: 1); type: functional
[18] = Toxicity in athymic nude BALB/c mouse xenografted with human MDA-MB-231 cells assessed as effect on creatinine level in serum at 3 mg/kg, ip administered 5 times a week for 7 weeks; type: organism-based; conditions: in vivo, 1176 h
Histone deacetylase 8 = biological target: T2, Histone deacetylase 8 (Homo sapiens, UniProt Q9BY41); assay: Inhibition of recombinant human HDAC8 using acetylated luminogenic substrate incubated for 10 mins by ultra-glo recombinant firefly luciferase based luminescence assay
T2 sequence (Q9BY41 whole entry): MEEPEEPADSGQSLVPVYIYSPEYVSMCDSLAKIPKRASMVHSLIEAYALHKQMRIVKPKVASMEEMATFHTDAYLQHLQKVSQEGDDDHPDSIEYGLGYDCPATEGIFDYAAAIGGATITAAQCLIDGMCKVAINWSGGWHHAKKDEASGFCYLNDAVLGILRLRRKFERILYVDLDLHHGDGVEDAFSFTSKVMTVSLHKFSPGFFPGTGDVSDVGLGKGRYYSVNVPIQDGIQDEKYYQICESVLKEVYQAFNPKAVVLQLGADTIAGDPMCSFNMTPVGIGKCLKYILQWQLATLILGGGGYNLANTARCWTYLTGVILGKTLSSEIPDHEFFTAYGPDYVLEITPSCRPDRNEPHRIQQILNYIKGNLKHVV

NCI-H1975 = assay: Antitumor activity against human NCI-H1975 cells xenografted in athymic nude BALB/c mouse assessed as average tumor size at 6 mg/kg, ip administered 5 times a week for 3 weeks and measured on day 22 (reference value: 776.4 +/- 118.1 mm3); type: functional; conditions: time 22 day
Histone deacetylase 3 = Histone deacetylase 3 (Homo sapiens, UniProt O15379); assay: Inhibition of recombinant human HDAC3 using acetylated luminogenic substrate incubated for 10 mins by ultra-glo recombinant firefly luciferase based luminescence assay
[19] = Downregulation of HDAC6 protein expression in human NCI-H1975 cells assessed as fold change at 0.1 uM incubated for 24 hrs by immunoblotting analysis (reference value: 1); type: functional
[20] = Downregulation of HDAC9 protein expression in human NCI-H1975 cells assessed as fold change at 0.05 uM incubated for 24 hrs by immunoblotting analysis (reference value: 1); type: functional
[21] = Downregulation of HDAC3 protein expression in human MDA-MB-231 cells assessed as fold change at 0.1 uM incubated for 24 hrs by immunoblotting analysis (reference value: 1); type: functional

Sequence of Histone deacetylase 3 (O15379 whole entry): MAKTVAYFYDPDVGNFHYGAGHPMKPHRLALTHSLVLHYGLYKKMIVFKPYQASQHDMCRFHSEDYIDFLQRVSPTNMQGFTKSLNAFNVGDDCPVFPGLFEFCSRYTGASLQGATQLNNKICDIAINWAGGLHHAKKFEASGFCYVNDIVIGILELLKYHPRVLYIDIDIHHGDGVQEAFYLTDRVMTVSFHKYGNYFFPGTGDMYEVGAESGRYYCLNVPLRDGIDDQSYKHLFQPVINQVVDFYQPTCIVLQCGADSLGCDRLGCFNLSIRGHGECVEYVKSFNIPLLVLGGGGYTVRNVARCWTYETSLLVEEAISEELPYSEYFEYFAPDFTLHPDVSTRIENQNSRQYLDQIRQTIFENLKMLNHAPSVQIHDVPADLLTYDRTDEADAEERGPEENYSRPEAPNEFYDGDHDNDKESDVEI
Sequence of Histone deacetylase 5 (Q9UQL6 whole entry): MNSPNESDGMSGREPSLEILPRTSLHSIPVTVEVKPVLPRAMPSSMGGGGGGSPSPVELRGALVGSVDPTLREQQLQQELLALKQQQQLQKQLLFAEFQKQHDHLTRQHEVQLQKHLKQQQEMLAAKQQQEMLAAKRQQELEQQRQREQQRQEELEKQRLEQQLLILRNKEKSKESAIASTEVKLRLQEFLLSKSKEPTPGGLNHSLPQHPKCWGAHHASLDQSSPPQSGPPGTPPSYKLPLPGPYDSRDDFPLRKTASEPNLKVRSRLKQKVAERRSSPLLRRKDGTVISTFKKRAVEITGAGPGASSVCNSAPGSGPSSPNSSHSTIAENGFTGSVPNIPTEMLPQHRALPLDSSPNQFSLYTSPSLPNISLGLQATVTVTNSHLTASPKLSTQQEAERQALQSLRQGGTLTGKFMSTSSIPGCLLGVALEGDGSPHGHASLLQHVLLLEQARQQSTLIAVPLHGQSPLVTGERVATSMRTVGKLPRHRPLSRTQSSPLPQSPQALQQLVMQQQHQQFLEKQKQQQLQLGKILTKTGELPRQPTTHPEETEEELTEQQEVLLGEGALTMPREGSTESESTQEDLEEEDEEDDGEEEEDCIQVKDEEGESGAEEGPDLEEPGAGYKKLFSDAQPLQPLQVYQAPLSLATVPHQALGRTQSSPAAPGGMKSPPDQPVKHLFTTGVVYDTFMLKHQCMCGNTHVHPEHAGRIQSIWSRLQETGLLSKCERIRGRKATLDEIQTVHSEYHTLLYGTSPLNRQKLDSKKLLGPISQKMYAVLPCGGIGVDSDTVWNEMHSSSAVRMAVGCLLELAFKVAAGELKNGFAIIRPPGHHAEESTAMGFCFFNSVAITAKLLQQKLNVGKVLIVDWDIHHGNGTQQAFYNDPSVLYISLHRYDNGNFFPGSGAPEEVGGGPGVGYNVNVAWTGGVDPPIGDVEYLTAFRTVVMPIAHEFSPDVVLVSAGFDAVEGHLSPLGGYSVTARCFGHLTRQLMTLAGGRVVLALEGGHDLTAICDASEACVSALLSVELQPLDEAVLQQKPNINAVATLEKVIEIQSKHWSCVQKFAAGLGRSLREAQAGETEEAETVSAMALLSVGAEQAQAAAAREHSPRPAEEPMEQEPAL

In the case of `CCOc1ccc(-c2nc(C(=O)NCc3ccc(C(=O)NO)cc3)c3[nH]c(=O)n(-c4cccnc4OC)c3n2)cn1`, the “fold change (FC)” value [1] is reported as 0.85, the “fold change (FC)” value [2] is reported as 1.7 and the Activity [3] is reported as “Non-Toxic”. The “fold change (FC)” value [4] was 0.82, the Activity [5] was “Non-Toxic” and the “fold change (FC)” value [6] was 0.84. The “fold change (FC)” value [7] was 1.25, the IC50 (Histone deacetylase 11) was 49.9 nM and the “fold change (FC)” value [8] was 1.85. The “fold change (FC)” value [9] was 1.17, the “fold change (FC)” value [10] was 1.08 and the “fold change (FC)” value [11] was 1.08. The Activity [12] was “Non-Toxic”, the “fold change (FC)” value [13] was 1.33 and the “fold change (FC)” value [14] was 0.69. For the same compound, the IC50 (Histone deacetylase 5) was > 1000 nM, the Activity [15] was “Non-Toxic” and the “fold change (FC)” value [16] was 0.77. For the same compound, the “fold change (FC)” value [17] was 0.2, the Activity [18] was “Non-Toxic” and the IC50 (Histone deacetylase 8) was 138 nM. The Activity (NCI-H1975) was 331.8 mm3, the IC50 (Histone deacetylase 3) was 8.8 nM and the “fold change (FC)” value [19] was 0.41. For the same compound, the “fold change (FC)” value [20] was 0.5 and the “fold change (FC)” value [21] was 0.65.
